In patent publication US10577406B2, “FKBP-L polypeptides and uses in angiogenesis-mediated disorders” (ALMAC DISCOVERY LIMITED, priority 2006, dated 2020):
Ends that are not written are not given here.

Columns and labels:
[1] = tested on: L132 cells; assay: cDNA microarray analysis of gene expression after FKBP-L antisense; assay type: cell-based; details: 8 h after exposure, vs lipofectin only
Procedure: Total RNA was isolated from L132 cells, 8 h after exposure to FKBP-L antisense (FKBP-L antisense: 5′ ATG GCC AGG CTC CCG CTC 3′) (SEQ ID NO: 40) or lipofectin only as a control. Poly A+mRNA was extracted from total RNA samples using the Qiagen Oligotex kit (Qiagen, UK), according to the manufacturer's instructions. These mRNA samples (800 ng per sample) were sent to Incyte Genomics, USA where a UniGEM 2.0 microarray analysis was conducted.
Incyte's Lifearray chips enable the interrogation of up to 10,000 genes simultaneously, resulting in the comparison of gene expression levels in two different samples. Briefly, a standard reverse transcription reaction was carried out to convert both mRNA samples to cyanine-dye-labelled cDNA. mRNA from L132 cells treated with FKBP-L antisense oligonucleotides after 8 h was used to generate a Cyanine 3 (green) labelled probe and mRNA from L132 cells treated with lipofectin only after 8 hours was used to produce a Cyanine 5 (red) labelled probe. The two fluorescent probe samples were simultaneously applied to a single microarray chip containing numerous cDNA probes immobilised on a solid support in specific locations, where they competitively reacted with the arrayed cDNA molecules. Following incubation, the microarray was rinsed in a series of baths to ensure the removal of any unhybridised sample. The microarray was then captured as an image that was acquired using a scanner for fluorescent signal detection. This scanner generated data on the intensity of each spot by excitation of the fluorochromes on the array. Each element of the chip was scanned for the Cy3 (green) and then the Cy5 (red) fluorescent label to create electronic images for both dye channels. The final array images were analysed using the Incyte GEMTools software package.

[2] = tested on: rat aortic ring; assay type: cell-based, Male Wistar rats
Procedure: Male Wistar rats were euthanised and the thoracic aorta was aseptically removed and sectioned into 1 cm thick rings. The rings were washed ten times in sterile medium to remove any bacteria and embedded into Matrigel on 24 well plates. The wells were supplemented with 2 ml of medium and increasing concentrations of full-length His-tagged recombinant FKBP-L protein (SEQ ID 1). The plate was incubated for 8 days and post incubation the Matrigel and rings were fixed in 4% PBS buffered paraformaldehyde and stored in PBS. The extent of vessel development was blindly assessed microscopically by an independent investigator and quantified using a calibrated eyepiece graticule (1 mm/100 μm graduation) at 20× magnification (Olympus BX 50). The extent of vessel length, maximum vessel length and number of vessels in each field of view was measured and compared to time matched sham controls and the percent (%) inhibition calculated. Male Wistar rats were euthanised and the thoracic aorta was aseptically removed and sectioned into 1 cm thick rings. The rings were washed ten times in sterile medium to remove any bacteria and embedded into Matrigel on 24 well plates. The wells were supplemented with 2 ml of medium and increasing concentrations of FKBP-L 24mer (SEQ ID NO: 10) and FKBP-L 1-57mer (SEQ ID NO: 6) and recombinant FKBP-L (SEQ ID NO:1). The plate was blindly assessed by an independent investigator and quantified using a calibrated eyepiece graticule (1 mm/100 μm graduation) at 20× magnification (Olympus BX 50). The extent of vessel length, maximum vessel length and number of vessels in each field of view was measured and compared to time matched sham controls and the % inhibition calculated. In order to determine whether the FKBP-L 24mer exerted a permanent or static effect on endothelial cell sprouting the rat aortic ring assay was used. Male Wistar rats were euthanised and the thoracic aorta was aseptically removed and sectioned into 1 cm thick rings. The rings were washed ten times in sterile medium to remove any bacteria and embedded into Matrigel on 24 well plates. The wells were supplemented with 2 ml of medium. The plates were incubated for up to 15 days. Each day the Matrigel rings were photographed and returned to their incubator. Two further experiments were carried out: (A) addition of FKBP-L 24mer to the medium after the vessels had grown for seven days; and (B) addition of FKBP-L 24mer to the medium at the initial embedding stage, with subsequent removal after seven days and replacement with fresh medium for a further seven days. The extent of vessel development was quantified using a calibrated eyepiece graticule (1 mm/100 μm graduation) at 20× magnification (Olympus BX 50), and measured electronically using Lucia imaging software. Vessel length was measured and compared to time matched sham controls and the percent (%) inhibition calculated.

[3] = tested on: HMEC-1; assay type: cell-based, Human; details: 18 h
Procedure: (§1) The in vitro tubule formation assay used in these studies is a modified version of the method described by Ashton et al (1999). In brief, assays were conducted using BD BioCoat™ Matrigel™ Matrix Thin Layer 24-well Multiwell Plates (BD Discovery Labware, Oxford, UK). The Matrigel™ was rehydrated with 500 μl MCDB-131 serum free medium and incubated at 37° C. for 30 minutes. Excess medium was removed and HMEC-1 were seeded at a density of 1×10^5 and the plates incubated at 37° C. under 5% CO2/95% air for 1 hour.
(§2) Increasing concentrations of the recombinant FKBP-L protein (SEQ ID NO: 1) were added to each individual well in triplicate (250-1000 ngml^−1) and the plate was incubated for a further 18 hours. The degree of tubule formation between adjacent HMEC-1 cells was assessed in each well in five fields of view, by counting the number of cell to cell contacts between different HMEC-1 cells in the designated area. An independent investigator assessed each well and the FKBP-L treated wells were compared to sham treated controls.
as §1, with “al.” for “al”, “min.” for “minutes.”, “h. Increasing concentrations of FKBP-L 24mer (SEQ ID NO: 10) and 1-57mer (SEQ ID NO: 6) from 10^−14-10^−6 M were used.” for “hour.”
as §2, with “The” for “Increasing concentrations of the recombinant FKBP-L protein (SEQ ID NO: 1) were added to each individual well in triplicate (250-1000 ngml^−1) and the”, “h.” for “hours.”

[4] = tested on: HMEC-1; assay: in vitro migration assay (wound closure / wound scrape), recombinant protein or peptides added to medium; assay type: cell-based, Human; details: wound scrape
Procedure: (§3) The in vitro migration assay used in these studies is a modified version of the method described by Ashton et al (1999). HMEC-1 were plated into individual chambers on a glass slide and grown to 90% confluence overnight. The medium was removed and the monolayer wounded. The monolayer was re-supplemented with fresh medium and the required volume of recombinant full length his-tagged FKBP-L protein (SEQ ID NO: 1) was added to give the required final concentration.
The monolayers were incubated for 7 hours after exposure to recombinant FKBP-L protein and then fixed in 4% PBS buffered paraformaldehyde. The extent of “wound” closure was blindly assessed microscopically by an independent investigator and quantified using a calibrated eyepiece graticule (1 mm/100 μm graduation) at 20× magnification (Olympus BX 50). The extent of closure in the FKBP-L treated slides was compared to time matched sham treated controls and the % inhibition of wound closure compared to time matched controls calculated.
The following studies were performed to determine the effect of a full length His-tagged recombinant FKBP-L protein on the wound closure assay measured as a function of time. Again, the in vitro migration assay used in these studies is a modified version of the method described by Ashton et al (1999). HMEC-1 were plated into individual chambers on a glass slide and grown to 90% confluence overnight. The medium was removed and the monolayer wounded. The monolayer was re-supplemented with fresh medium and the required volume of full length his-tagged recombinant FKBP-L (i.e., SEQ ID NO: 1) added to give the required final concentration 750 ngml^−1.
Slides were removed at fixed time points until complete closure of the wound, then fixed in 4% PBS buffered paraformaldehyde. The extent of “wound” closure was blindly assessed microscopically by an independent investigator and quantified using a calibrated eyepiece graticule (1 mm/100 μm graduation) at 20× magnification (Olympus BX 50). The extent of closure in the FKBP-L treated slides was compared to time matched sham treated controls and the % inhibition of wound closure compared to time matched controls calculated.
as §3, with “al. (1999) see supra.” for “al (1999).”, “the following peptides” for “recombinant full length his-tagged FKBP-L protein (SEQ ID NO: 1)”, “achieve a dose range from 10^−14-10^−6 M.” for “give the required final concentration.”
The monolayers were incubated for 7 h and then fixed in 4% PBS buffered paraformaldehyde. The extent of “wound” closure was blindly assessed microscopically by an independent investigator and quantified using a calibrated eyepiece graticule (1 mm/100 μm graduation) at 20× magnification (Olympus BX 50). The extent of closure in the FKBP-L treated slides was compared to time matched sham treated controls and the % inhibition of wound closure compared to time matched controls calculated.
The in vitro migration assay used in these studies is a modified version of the method described by Ashton et al. (1999) see supra. HMEC-1 were plated into individual chambers on a glass slide and grown to 90% confluence overnight. The medium was removed and the monolayers wounded. The monolayer was re-supplemented with fresh medium and the required volume of each peptide (i.e., peptides 1-17, SEQ ID NOS: 12-28; Table 4 below) was added to give the required final concentration (10^−14-10^−6 M).
The monolayers were incubated for 24 h and then fixed in 4% PBS buffered paraformaldehyde. The extent of “wound” closure was blindly assessed microscopically by an independent investigator and quantified using a calibrated eyepiece graticule (1 mm/100 μm graduation) at 20× magnification (Olympus BX 50). […]

[5] = tested on: HMEC-1 cells; assay: MTT assay of cell viability/proliferation; details: 24mer 10^−5-10^−10M, 1-57mer 10^−9M and 10^−10M; 24 hours and 48 hours
Procedure: An MTT assay was used to measure cell viability/proliferation.
An MTT assay was used to measure cell viability and/or proliferation. Briefly, HMEC-1 cells were seeded (2.5×10^3) in 96 well plates and allowed to attach for 5 h. The cells were treated with FKBP-L 24mer (SEQ ID NO: 10) (10^−5-10^−10M), 1-57mer (SEQ ID NO: 6) (10^−9M and 10^−10M) or medium (control).
Post incubation the cells were exposed to a 5 mgml^−1 solution of 3-(-4,5-dimethylthiazol-2-yl) 2,5 diphenyl tetrazolium (MTT) for 4 h. The cells were aspirated and 200 μl of DMSO added to reduce the salt and induce a colour change.

[6] = tested on: DU145 human prostate tumor xenograft; assay: prostate cancer xenograft model, intratumoral injection of plasmid complexes; assay type: in vivo, severe combined immunodeficient mice; details: twice weekly
Procedure: Du145 (prostate carcinoma) cells were obtained from Cancer Research UK and cultured in RPMI 1640 medium (Invitrogen) supplemented with 10% foetal calf serum. All cell lines were grown as monolayers, incubated at 37° C. under 5% CO2.
The FKBP-L/pcDNA3.1 plasmid was constructed by excision of the FKBPL cDNA using BamH1 (polynucleotide SEQ ID NO:31) from pUC18 and then directional ligation of FKBP-L into the BamHI restriction site of pcDNA3.1 (Invitrogen) as described in Example 1. The endostatin plasmid (for use as a postive anti-angiogenic control) hEndo XV/pcDNA3.1, was constructed by digesting the pBLAST hENDO XV plasmid (InVivoGen) with Hpa1 (Promega) and EcoV (Invitrogen) to release the hEndo XV insert. The hEndo XV insert was ligated directionally into the ECoRV restriction site of pcDNA3.1 (Invitrogen).
Nineteen (19) male immunocompromised (severe combined immunodeficient) mice were used (Harlan). The mice were aclimatized and caged in groups of 5 or less in a barrier care facility. Du145 (prostate carcinoma) cells were cultured as previously described. Subconfluent cells were harvested and the cell concentration was adjusted to 5×10^7 cells/ml in PBS. The dorsum of each mouse was shaved. […] The tumors were measured before each treatment. Tumor volume was calculated as: 4/3 πr^3 (where r=½ GMP and GMP=^3√{square root over (Length×Breadth×Height)}).

## 5′ ATG GCC AGG CTC CCG CTC 3′ (antisense ATGGCCAGGCTCCCGCTC; listed as DNA, chemistry not given here; listed as Homo sapiens) [FKBP-L anti-sense oligonucleotides]
[1]; decrease ↓
  Fold Increase (↑) or Decrease (↓): Annexin 2: ↓ 1.6 Fold
  Fold Increase (↑) or Decrease (↓): CYR61: ↓ 2.4 Fold
  Fold Increase (↑) or Decrease (↓): Tubulin α: ↓ 1.5 Fold
  Fold Increase (↑) or Decrease (↓): Tubulin β: ↓ 1.5 Fold
  Fold Increase (↑) or Decrease (↓): Tubulin γ: ↓ 1.6 Fold
[1]; increase ↑
  Fold Increase (↑) or Decrease (↓): MMP-like 1: ↑ 1.5 Fold
  Fold Increase (↑) or Decrease (↓): Microtubule associated protein 1B: ↑ 1.6 Fold
  Fold Increase (↑) or Decrease (↓): PI3K: ↑ 3.1 Fold
  Fold Increase (↑) or Decrease (↓): ROCK: ↑ 1.6 Fold
  Fold Increase (↑) or Decrease (↓): Rho GTPase activating protein-: ↑ 2.0 Fold
  Fold Increase (↑) or Decrease (↓): oligophrenin 1: ↑ 1.7 Fold

## METPPVNTIGEKDTSQPQQEWEKNLRENLDSVIQIRQQPRDPPTETLELEVSPDPAS [FKBP-L 1-57mer]
[2]
  IC50: 0.53 nM
[3]
  EC50: 0.0007 nM
[4]; 7 h
  potency compared with the full length recombinant protein on a mole/mole basis: increased potency
[5]
  effect on proliferation of HMEC-1 cells compared to time-matched controls: neither of the peptides had any significant effect

## RQQPRDPPTETLELEVSPD-OH (listed as Homo sapiens) [Pep 12]
[4]; 24 h
  activity relative to the FKBP-L 24mer: about the same as the FKBP-L 24mer

## endostatin
[6]
  tumor appearance: evidence of a necrotic center
